A short description of the data set: Kinetic solubility assay. It is filed as physicochemical. On the procedure:
MK256 was supplied as DMSO stock at 10 mM. 190 μL of buffer solution (PBS, pH 7.4) was added to all wells on a 96-well Millipore Solubility filter plate. 10 μL of MK256 or control compound testosterone was transferred in triplicate to the buffer wells to a final concentration of 500 μM. The filter plate was shaken for 1.5 hours at room temperature. Samples were filtered via a vacuum system into a fresh 96-well plate. Compounds were diluted to 500 μM (highest concentration) in DMSO and further diluted 1:10 for calibration curve (three-point). HPLC/UV analysis was performed on all samples (220 nm, 254 nm, and 280 nm).

≈ marks a conversion by molar mass, not a printed value. Like-named read-outs stand apart in the source and are kept apart here.

For `Nc1nccc2c(Br)cc3cc(C(=O)O)ccc3c12` [MK256], the solubility kinetic at 1.5 h (PBS buffer, aqueous buffer, kinetic from dmso stock, pH 7.4, read-out: KSOL (μM) PBS (PH 7.4)) stood at 566 µM (≈ 180 µg/mL) and the solubility kinetic at 1.5 h (PBS, pH 7.4, read-out: KSOL (μM) PBS (PH 7.4)) is 566 µM (≈ 180 µg/mL).

The values are drawn from paper PMC9629815, “MK256 is a novel CDK8 inhibitor with potent antitumor activity in AML through downregulation of the STAT pathway” (Oncotarget, 2022).
